Legend:
advanced solid tumors = test: Antitumor effect by RECIST Version 1.1; type: in vivo, human
Procedure: (§1) The secondary objectives were to investigate the PK profile, safety, tolerability, antitumor activity, and pharmacodynamic profile of TAS-115. AEs were graded according to the CTCAE Version 4.03. Response was assessed by radiologic imaging at 6 and 12 weeks from the first dose, and every 12 weeks thereafter. Antitumor effect was evaluated by investigators using Response Evaluation Criteria in Solid Tumors (RECIST) Version 1.1 [17]. If a patient had bone lesions, evaluation was performed using bone scintigraphy and bone scan index (BSI) were calculated by BONENAVI® software (FUJIFILM Toyama Chemical, Co., Ltd., Japan). BSI response was defined as ≥30% reduction in BSI [18]. An exploratory objective was to assess changes in protein levels of soluble MET (sMET), VEGF, and soluble VEGFR2 (sVEGFR2) in plasma, and HGF in serum as pharmacodynamic markers.

soluble MET (sMET) = test: Pharmacodynamic marker: sMET in plasma; type: in vivo, human
Procedure: as §1
For pharmacodynamic analyses, blood samples were collected on Days 1 and 22 (before dosing, each) in part 1, and Days 1 (pre-dosing) and 19 (pre- and post 6 h) in part 2 and the expansion part. Patients provided written informed consent to provide blood samples for exploratory pharmacodynamics assessments.
The planned sample size was up to 90 patients, and it was not based on the formal calculation because of experimental phase I trial. For pharmacodynamics parameters, P values were calculated using the paired t-test for measured values from merged doses. The data cut-off date for the analyses presented in this report was August 19, 2018. This study is registered with Japan Pharmaceutical Information Center Clinical Trial registry, number JapicCTI-132333.

soluble VEGFR2 (sVEGFR2) = test: Pharmacodynamic marker: sVEGFR2 in plasma; type: in vivo, human
Procedure: as §1
For pharmacodynamic analyses, blood samples were collected on Days 1 and 22 (before dosing, each) in part 1, and Days 1 (pre-dosing) and 19 (pre- and post 6 h) in part 2 and the expansion part. […]
The planned sample size was up to 90 patients, and it was not based on the formal calculation because of experimental phase I trial. For pharmacodynamics parameters, P values were calculated using the paired t-test for measured values from merged doses. […]

192-panel kinase = target: 192-panel kinase; parameters: method as in PMID 24140932; conditions: 192-panel kinase assay; read-out: IC50 for 53 (28%) kinases, including MET, AXL, c-kit, Src, PDGFR-alpha and –beta; cited from earlier work

## CNC(=O)c1cc2c(Oc3ccc(NC(=S)NC(=O)Cc4ccccc4)cc3F)ccnc2cc1OC [TAS-115]
Advanced solid tumors; 650 mg 5-on/2-off discontinued at week 7, after discontinuation without further antitumor treatment
  antitumor effect in a patient with bladder cancer with metastases: the lung metastatic lesions disappeared
Advanced solid tumors; all parts
  complete or partial response by RECIST evaluation: no patients who showed complete or partial response
Advanced solid tumors; patients determined as having progressive disease (PD)
  minor tumor shrinkage of target lesions: four patients
Soluble MET (sMET); Day 19, 6 h after administration, part 2 and expansion part, P = .0055
  change of sMET in plasma: significant increase
Soluble MET (sMET); Day 19 pre-dose, part 2 and expansion part, P = .0015
  change of sMET in plasma: significant increase
Soluble MET (sMET); Day 22 in part 1, P = .0031
  change of sMET in plasma: significant increase
Soluble VEGFR2 (sVEGFR2); 6 h post-dose on Day 19 compared with pre-dose on Day 19, P = .0204
  change of VEGFR2: decrease
Soluble VEGFR2 (sVEGFR2); in vivo
  marked alterations of sVEGFR2 from Day 1: not observed
192-panel kinase
  IC50: < 1000 nM

From publication PMC7340670, “Phase I study of TAS-115, a novel oral multi-kinase inhibitor, in patients with advanced solid tumors” (Investigational New Drugs, 2019)
